Measurements taken from ChEMBL document CHEMBL3526148, “Cerebrospinal fluid can be used as a surrogate to assess brain exposures of breast cancer resistance protein and P-glycoprotein substrates” (Drug Metab Dispos, 2012).

How the values were obtained:
Format in all cases: ADME, cell-based
[1] = Inhibition of P-gp-mediated [3H]-digoxin transport in human Caco2 cells at 3 uM after 30 mins; conditions: caco-2, 0.5 h
[2] = target: T1, Broad substrate specificity ATP-binding cassette transporter ABCG2 (Homo sapiens, UniProt Q9UNQ0); test: Inhibition of BCRP-mediated [3H]estrone-3-sulfate transport in human Caco2 cells at 3 uM after 30 mins; conditions: caco-2, 0.5 h
T1 sequence (Q9UNQ0 whole entry): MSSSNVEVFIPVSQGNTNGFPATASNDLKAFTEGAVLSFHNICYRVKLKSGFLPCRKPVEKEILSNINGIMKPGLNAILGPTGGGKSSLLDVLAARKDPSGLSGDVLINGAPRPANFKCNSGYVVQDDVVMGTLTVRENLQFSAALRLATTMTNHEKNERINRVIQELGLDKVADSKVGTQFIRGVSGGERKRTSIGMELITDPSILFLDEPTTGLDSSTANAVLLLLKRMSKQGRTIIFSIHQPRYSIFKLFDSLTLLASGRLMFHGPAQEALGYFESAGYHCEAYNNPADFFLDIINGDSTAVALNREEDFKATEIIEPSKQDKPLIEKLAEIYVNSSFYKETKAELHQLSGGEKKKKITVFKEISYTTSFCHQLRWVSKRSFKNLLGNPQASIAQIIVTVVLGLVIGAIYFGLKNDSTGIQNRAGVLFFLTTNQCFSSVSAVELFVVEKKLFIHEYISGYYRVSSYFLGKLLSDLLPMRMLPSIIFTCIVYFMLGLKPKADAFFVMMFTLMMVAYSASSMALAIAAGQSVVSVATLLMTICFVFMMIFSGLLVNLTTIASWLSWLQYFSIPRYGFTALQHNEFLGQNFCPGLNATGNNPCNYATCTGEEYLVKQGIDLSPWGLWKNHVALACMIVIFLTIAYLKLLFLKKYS

[3] = Apparent permeability from apical to basolateral side in human Caco2 cells at 5 uM after 2 hrs; conditions: Caco-2
[4] = Apparent permeability from basolateral to apical side in human Caco2 cells at 5 uM after 2 hrs; conditions: Caco-2
[5] = Inhibition of P-gp-mediated [3H]-digoxin transport in human Caco2 cells at 10 to 50 uM after 30 mins; conditions: caco-2, 0.5 h
[6] = Inhibition of P-gp-mediated [3H]-digoxin transport in human Caco2 cells at 1 uM after 30 mins; conditions: caco-2, 0.5 h
[7] = target: T1, Broad substrate specificity ATP-binding cassette transporter ABCG2; test: Inhibition of BCRP-mediated [3H]estrone-3-sulfate transport in human Caco2 cells at 1 uM after 30 mins; conditions: caco-2, 0.5 h

SMILES: COc1cc2c(cc1OC)CN(CCc1ccc(NC(=O)c3cccc4c(=O)c5cccc(OC)c5[nH]c34)cc1)CC2
- inhibition (INH) [1]: Active
- inhibition (INH) [2]: Active

SMILES: COc1ccc2c3c([nH]c2c1)[C@H](CC(C)C)N1C(=O)[C@H](CCC(=O)OC(C)(C)C)NC(=O)[C@@H]1C3
- inhibition (INH) [1]: Not Active

SMILES: O=C1CN(/N=C/c2ccc(-c3ccc([N+](=O)[O-])cc3)o2)C(O)=N1 [DANTROLENE]
- Papp A→B at 2 h, 5 µM [3]: 2 ×10⁻⁶ cm/s
- Papp B→A at 2 h, 5 µM [4]: 9.8 ×10⁻⁶ cm/s
- inhibition (INH) [5]: Not Active

SMILES: C/C=C/C[C@@H](C)C(=O)[C@H]1C(=O)N[C@@H](C(C)C)C(=O)N(C)CC(=O)N(C)[C@@H](CC(C)C)C(=O)N[C@@H](C(C)C)C(=O)N(C)[C@@H](CC(C)C)C(=O)N[C@@H](C)C(=O)N[C@H](C)C(=O)N(C)[C@@H](CC(C)C)C(=O)N(C)[C@@H](CC(C)C)C(=O)N(C)[C@@H](C(C)C)C(=O)N1C [VALSPODAR]
- inhibition (INH) [6]: Active
- inhibition (INH) [7]: Not Active
